One assay concerns the target T1, BMPR2 (Homo sapiens, UniProt Q13873).
T1 sequence (Q13873 1-1038): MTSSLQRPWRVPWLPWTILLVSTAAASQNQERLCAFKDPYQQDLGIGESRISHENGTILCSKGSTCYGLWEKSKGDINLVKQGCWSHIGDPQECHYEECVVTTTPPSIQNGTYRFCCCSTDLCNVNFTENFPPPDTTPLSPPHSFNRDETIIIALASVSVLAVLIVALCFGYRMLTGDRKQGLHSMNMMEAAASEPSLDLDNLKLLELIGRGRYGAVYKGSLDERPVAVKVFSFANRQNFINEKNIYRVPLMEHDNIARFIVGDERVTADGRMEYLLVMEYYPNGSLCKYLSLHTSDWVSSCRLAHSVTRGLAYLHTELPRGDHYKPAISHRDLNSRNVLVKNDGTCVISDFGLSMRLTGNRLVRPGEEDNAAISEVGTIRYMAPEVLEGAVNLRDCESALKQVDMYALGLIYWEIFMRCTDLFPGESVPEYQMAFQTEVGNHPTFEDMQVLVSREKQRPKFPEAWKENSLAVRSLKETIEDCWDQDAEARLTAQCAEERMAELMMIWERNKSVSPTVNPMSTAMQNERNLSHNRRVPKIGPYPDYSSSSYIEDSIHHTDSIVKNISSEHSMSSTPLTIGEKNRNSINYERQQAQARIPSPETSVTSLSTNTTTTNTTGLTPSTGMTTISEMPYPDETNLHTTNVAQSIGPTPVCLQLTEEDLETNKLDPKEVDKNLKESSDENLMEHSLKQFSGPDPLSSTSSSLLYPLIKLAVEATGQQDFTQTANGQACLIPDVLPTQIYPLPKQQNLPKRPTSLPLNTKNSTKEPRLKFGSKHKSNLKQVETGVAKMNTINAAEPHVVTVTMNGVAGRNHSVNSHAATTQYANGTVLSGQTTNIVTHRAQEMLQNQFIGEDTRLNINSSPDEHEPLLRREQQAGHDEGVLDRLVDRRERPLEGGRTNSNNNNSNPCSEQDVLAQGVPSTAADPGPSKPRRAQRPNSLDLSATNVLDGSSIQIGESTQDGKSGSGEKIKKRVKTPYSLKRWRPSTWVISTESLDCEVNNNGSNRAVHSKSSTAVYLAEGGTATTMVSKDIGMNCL
Put plainly: biochemical. More on the design: Thermal shift (DSF, SYPRO Orange) Tm shift of recombinant kinase domains at 10 uM compound.

For the next assay, the target named is T2, GAK (Homo sapiens, UniProt O14976).
T2 sequence (O14976 1-1311): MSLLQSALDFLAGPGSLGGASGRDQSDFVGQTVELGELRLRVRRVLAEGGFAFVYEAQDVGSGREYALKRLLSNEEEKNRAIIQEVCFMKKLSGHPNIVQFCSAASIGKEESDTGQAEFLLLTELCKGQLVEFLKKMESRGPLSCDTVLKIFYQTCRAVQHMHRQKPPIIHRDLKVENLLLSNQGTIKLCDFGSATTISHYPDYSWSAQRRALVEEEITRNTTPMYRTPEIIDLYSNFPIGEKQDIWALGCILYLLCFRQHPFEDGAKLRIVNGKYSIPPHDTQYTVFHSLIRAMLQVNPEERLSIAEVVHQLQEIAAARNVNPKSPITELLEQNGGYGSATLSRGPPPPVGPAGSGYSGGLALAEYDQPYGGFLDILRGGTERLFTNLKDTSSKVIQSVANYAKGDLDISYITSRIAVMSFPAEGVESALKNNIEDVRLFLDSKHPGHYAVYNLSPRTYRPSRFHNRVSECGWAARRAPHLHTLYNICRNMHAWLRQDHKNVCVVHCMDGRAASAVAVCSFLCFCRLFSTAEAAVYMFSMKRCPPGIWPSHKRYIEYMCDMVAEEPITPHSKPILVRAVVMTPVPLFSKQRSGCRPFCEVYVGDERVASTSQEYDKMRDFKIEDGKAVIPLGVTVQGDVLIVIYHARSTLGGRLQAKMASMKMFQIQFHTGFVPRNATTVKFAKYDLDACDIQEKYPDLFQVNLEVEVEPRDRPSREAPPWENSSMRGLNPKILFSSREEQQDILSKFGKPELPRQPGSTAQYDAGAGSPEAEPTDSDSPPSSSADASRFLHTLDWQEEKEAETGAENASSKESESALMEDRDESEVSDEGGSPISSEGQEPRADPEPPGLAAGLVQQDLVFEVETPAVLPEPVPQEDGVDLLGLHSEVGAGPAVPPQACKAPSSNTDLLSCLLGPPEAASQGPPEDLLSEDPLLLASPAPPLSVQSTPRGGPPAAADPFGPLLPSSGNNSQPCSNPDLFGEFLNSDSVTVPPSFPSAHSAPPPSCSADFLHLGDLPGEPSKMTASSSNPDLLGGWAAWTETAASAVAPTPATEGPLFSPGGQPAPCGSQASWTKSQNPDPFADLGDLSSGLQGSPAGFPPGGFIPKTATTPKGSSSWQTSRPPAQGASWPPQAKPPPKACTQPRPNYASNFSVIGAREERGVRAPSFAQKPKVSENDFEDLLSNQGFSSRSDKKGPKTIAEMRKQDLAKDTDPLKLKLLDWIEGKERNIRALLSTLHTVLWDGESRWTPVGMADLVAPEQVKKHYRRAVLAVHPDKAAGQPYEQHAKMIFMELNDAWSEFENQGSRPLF
Put plainly: biochemical. More on the design: Thermal shift (DSF, SYPRO Orange) Tm shift of recombinant kinase domains at 10 uM compound.

Structures are written as SMILES. Like-named read-outs stand apart in the source and are kept apart here.

For `CC(C)Oc1ccc2ccn(-c3cncc(-c4ccc(C(=O)O)cc4)n3)c2c1` [6c], the ΔTm at 10 µM at BMPR2 (read-out: 6c) came out at 7 °C; at GAK (read-out: 6c), 9 °C.
In the case of `COc1ccc(OC(C)C)cc1Nc1cncc(-c2ccc(C(=O)O)cc2)n1` [7c], the values for the ΔTm at 10 µM on BMPR2 (read-out: 7c) and at GAK (read-out: 7c) were 0 °C and 7 °C, respectively.
For the compound `CC(C)Nc1ccc2cnn(-c3cncc(-c4ccc(C(=O)O)cc4)n3)c2c1` [compound 2, 2], the ΔTm at 10 µM on BMPR2 (read-out: 2) amounted to 6 °C; on GAK (read-out: 2), 11 °C.
